2 compounds from patent publication US8178577B2, “Tricyclic derivatives as potent and selective histone deacetylase inhibitors” (Shenzhen Chipscreen Biosciences Ltd., priority 2008, dated 2012) can be followed below.

Format in all cases: cell-based
Test [1] has as its target T1, HDAC3 (Homo sapiens, UniProt O15379).
T1 construct: endogenous in cells; host or cells: HeLa
The test is described as follows: gdf11 reporter gene assay in HeLa cells. The following applies: HeLa, 24 h, read-out: % of SAHA Response for HDAC3 at 10 μM (gdf11 reporter gene). The procedure:
HDAC subtype selectivity inhibition assay of tested compounds was carried out by several reporter gene assays experiments. Briefly, HeLa cells were seeded in 96-well plates the day before transfection to give a confluence of 50-80%. Cells were transfected with one of reporter gene plasmids containing a promoter sequences or response elements upstream of a luciferase gene construct using FuGene6 transfection reagent according to the manufacturer's instructions (Roche). The promoter or response elements including p21-promoter, gdf11-promoter, serum response element (SRE), MEF-binding element were fused upstream to the luciferase gene reporter construct. For normalizing the transfection efficiency, a GFP expression plasmid was cotransfected. Cells were allowed to express protein for 24 hours followed by addition of individual compounds or the vehicle (DMSO). 24 hours later the cells were harvested, and the luciferase assays were performed using the luciferase assay kit according to the manufacturer's instructions (Promega). To normalize the data from the luciferase assays, β-galactosidase activity from transfected cells was measured using a kit (Promega) as instructed by the manufacturer.
(A reporter such as luciferase makes a cellular process visible.)

Test [2] has as its target T2, (Homo sapiens, UniProt Q9UBN7).
T2 construct: endogenous in cells; host or cells: A549
T2 sequence (Q9UBN7 1-1215): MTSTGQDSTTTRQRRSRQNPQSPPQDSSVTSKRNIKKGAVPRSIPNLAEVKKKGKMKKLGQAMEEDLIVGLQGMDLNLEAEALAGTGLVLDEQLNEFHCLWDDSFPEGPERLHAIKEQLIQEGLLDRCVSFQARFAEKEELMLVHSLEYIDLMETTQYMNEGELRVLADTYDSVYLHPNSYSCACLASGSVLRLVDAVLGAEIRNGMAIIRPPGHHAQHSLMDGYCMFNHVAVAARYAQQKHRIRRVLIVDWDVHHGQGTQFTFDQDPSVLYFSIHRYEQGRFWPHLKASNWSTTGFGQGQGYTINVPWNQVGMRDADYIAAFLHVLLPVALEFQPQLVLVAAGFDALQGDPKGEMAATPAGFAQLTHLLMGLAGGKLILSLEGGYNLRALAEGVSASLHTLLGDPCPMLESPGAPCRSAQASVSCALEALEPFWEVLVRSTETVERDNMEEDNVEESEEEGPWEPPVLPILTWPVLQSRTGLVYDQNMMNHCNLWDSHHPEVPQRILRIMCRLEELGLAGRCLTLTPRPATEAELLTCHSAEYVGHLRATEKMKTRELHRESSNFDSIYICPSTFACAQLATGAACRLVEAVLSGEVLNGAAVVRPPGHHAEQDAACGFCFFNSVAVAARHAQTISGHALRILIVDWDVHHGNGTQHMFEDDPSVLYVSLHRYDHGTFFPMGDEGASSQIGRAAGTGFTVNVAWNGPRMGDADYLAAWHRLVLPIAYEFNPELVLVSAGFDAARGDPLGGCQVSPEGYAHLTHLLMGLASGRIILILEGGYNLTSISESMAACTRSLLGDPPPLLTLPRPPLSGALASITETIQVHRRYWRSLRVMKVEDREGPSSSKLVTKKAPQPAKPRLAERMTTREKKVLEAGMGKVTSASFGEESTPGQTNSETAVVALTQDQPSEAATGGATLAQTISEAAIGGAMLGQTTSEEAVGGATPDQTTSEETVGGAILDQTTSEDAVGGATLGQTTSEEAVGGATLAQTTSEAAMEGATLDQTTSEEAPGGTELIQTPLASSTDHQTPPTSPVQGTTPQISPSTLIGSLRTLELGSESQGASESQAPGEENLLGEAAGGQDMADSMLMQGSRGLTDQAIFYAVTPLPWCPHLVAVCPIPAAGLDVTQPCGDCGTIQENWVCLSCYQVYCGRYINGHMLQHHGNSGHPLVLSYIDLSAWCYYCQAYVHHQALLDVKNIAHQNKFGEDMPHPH
The test is described as follows: Cytoblot assay of acetylation of α-tubulin in A549 cells. Conditions: 24 hours. The procedure:
This assay is used to measure in vivo inhibition of HDAC6 in a cytoblot assay.
• 1. […] Compounds were added and incubated for 24 hours at 37° C. • 3.

The test system of test [3] is Hut-78. Nature of the test: Cell proliferation (MTS), Hut-78. Conditions: Homo sapiens, HuT78, 72 hours. The procedure:
(§1) Measurement of In Vivo Cell Proliferation:
(§2) Tumor cells were trypsinized and plated into 96-well plates at 3,000 per well and incubated in complete medium with 10% FBS for 24 hours. Compounds were added over a final concentration range of 100 μmol/L to 100 nmol/L in 0.1% DMSO and incubated for 72 hours in complete medium. The effects on proliferation were determined by addition of MTS reagent (Promega) according to the instruction, incubation for 2 hours at 37° C. in CO2 incubator, and record the absorbance at 490 nm using an ELISA plate reader.

The subject of test [4] is HeLa. Nature of the test: Cell proliferation (MTS), HeLa. Conditions: Homo sapiens, 72 hours. As for the experimental part: as §1, §2

T1 sequence (O15379 whole entry): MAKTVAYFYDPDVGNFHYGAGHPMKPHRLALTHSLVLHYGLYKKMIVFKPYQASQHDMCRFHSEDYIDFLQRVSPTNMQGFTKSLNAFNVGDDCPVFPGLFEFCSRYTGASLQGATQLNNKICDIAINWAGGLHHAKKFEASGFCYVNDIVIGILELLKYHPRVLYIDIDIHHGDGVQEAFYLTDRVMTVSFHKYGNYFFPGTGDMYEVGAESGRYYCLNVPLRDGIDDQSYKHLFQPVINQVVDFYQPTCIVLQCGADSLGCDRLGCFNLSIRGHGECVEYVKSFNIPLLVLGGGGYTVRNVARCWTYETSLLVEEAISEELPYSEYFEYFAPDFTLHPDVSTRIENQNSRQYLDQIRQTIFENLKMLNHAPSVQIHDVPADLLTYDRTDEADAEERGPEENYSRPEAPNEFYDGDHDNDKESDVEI
T1 sequence (Q9Y618 whole entry partner): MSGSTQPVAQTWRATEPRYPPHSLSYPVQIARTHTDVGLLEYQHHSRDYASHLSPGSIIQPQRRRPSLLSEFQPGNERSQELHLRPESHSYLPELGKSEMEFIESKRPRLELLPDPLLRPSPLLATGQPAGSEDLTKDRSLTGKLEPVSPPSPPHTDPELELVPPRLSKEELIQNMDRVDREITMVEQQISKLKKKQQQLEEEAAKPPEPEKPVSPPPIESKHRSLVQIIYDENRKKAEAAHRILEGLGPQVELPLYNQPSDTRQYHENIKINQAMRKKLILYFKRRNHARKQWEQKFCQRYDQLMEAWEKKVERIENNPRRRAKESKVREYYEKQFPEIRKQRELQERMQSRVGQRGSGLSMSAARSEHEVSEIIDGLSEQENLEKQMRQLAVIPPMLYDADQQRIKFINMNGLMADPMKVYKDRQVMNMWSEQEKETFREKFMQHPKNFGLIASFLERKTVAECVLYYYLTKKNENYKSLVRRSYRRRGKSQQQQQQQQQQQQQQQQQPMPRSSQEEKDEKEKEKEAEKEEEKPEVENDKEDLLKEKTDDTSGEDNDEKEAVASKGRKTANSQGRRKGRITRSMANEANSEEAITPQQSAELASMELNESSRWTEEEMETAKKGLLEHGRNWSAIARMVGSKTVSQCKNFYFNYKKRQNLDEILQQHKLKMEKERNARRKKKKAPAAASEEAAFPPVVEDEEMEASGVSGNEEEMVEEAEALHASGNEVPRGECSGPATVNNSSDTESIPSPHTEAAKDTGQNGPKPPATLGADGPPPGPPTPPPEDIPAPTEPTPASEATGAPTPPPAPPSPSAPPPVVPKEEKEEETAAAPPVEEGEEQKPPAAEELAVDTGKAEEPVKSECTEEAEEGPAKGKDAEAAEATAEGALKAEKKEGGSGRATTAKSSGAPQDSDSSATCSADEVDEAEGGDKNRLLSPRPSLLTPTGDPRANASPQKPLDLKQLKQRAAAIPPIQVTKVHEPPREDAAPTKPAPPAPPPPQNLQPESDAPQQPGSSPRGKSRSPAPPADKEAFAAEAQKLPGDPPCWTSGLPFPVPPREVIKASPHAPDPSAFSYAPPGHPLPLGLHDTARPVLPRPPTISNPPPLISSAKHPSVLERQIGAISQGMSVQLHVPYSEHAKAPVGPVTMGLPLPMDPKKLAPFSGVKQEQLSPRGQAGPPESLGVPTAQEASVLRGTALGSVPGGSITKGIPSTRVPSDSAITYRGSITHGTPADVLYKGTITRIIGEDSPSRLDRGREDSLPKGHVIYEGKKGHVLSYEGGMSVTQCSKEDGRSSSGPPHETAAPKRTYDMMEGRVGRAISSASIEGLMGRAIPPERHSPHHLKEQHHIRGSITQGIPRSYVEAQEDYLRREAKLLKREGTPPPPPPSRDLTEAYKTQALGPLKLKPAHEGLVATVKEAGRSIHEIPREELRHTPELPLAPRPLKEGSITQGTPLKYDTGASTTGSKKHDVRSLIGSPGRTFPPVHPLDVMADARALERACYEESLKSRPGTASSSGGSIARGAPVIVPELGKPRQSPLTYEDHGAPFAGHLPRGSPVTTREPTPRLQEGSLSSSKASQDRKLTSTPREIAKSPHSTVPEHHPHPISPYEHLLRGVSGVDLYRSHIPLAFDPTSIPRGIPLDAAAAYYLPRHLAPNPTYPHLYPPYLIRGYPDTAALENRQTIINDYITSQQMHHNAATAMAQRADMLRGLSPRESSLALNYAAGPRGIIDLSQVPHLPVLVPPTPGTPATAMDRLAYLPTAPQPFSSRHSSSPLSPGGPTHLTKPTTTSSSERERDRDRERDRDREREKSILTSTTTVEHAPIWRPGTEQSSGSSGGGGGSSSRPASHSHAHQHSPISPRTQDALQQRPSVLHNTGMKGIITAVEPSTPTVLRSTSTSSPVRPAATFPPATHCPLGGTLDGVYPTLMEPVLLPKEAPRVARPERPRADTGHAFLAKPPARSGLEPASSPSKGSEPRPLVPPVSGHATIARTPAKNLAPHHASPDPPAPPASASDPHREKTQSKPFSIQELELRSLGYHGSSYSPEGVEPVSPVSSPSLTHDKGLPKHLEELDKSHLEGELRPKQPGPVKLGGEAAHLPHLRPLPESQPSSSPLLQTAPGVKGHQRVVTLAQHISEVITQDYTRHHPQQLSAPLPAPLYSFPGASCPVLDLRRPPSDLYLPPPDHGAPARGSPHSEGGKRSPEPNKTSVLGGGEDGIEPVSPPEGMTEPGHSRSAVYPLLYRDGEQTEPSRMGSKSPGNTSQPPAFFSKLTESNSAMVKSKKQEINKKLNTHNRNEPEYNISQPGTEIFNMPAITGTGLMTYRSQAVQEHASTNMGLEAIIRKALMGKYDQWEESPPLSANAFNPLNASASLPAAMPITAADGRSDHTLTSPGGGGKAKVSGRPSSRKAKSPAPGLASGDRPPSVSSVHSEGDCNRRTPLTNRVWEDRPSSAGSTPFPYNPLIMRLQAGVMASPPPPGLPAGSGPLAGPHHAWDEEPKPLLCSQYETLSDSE

Regarding `Nc1cc(F)ccc1NC(=O)CCCCCNC(=O)C=C1c2ccccc2-c2ccccc21` [Example 12, 6-(2-(9H-fluoren-9-ylidene)acetamido)-N-(2-amino-4-fluorophenyl)hexanamide], the activation at 10 µM in test [1] is 26%. Besides, the “Fold of tubulin acetylation (HDAC7 at 10 μM)” value in test [2] amounted to 0.79 Fold. In addition, the GI50 (usually the concentration giving 50% growth inhibition) in test [3] was 3.89 µM; in test [4], 22.9 µM.

As to `Nc1ccccc1NC(=O)CCCCCNC(=O)C=C1c2ccccc2-c2ccccc21` [Example 13, 6-(2-(9H-fluoren-9-ylidene)acetamido)-N-(2-aminophenyl)hexanamide], the activation at 10 µM in test [1] was 66%. Also, in test [2], the “Fold of tubulin acetylation (HDAC7 at 10 μM)” value is recorded as 0.74 Fold. The GI50 in test [3] was determined as 1.35 µM; in test [4] it was 8.32 µM.
